Values of other authors, collected in patent US10006071B2, “Methods to control secretion of metabolic byproducts in algae to enhance recovery of said byproducts” (Institute for Systems Biology, priority 2010, dated 2018).
Where two headings read alike, the source gives them in different places. Residues, ends and D or L forms follow the SMILES beside them. *: point of attachment. Cbz = O=C(OCc1ccccc1)*; CH2F = FC*

Assays:
Metacaspase [1] = tested on: Metacaspase
metacaspase [2] = tested on: metacaspase

Row | inhibition of caspase-8 (Caspase-8) | inhibition of caspase-1 (Caspase-1) | inhibition of caspase-3 (caspase-3) | inhibition of caspase-6 (Caspase-6) | inhibition of caspase-9 (Caspase-9) | Compound | effect on apoptosis (apoptosis) | inhibition of metacaspase (Metacaspase [1]) | also measured
1 | inhibited | inhibited | inhibit | inhibited | inhibited | CC(=O)N[C@@H](Cc1ccc(O)cc1)C(=O)N[C@@H](CCC(=O)O)C(=O)N[C@H](C(=O)N[C@@H](CC(=O)O)C(=O)CCl)C(C)C [Ac-YEVD-CMK] (HELM PEPTIDE1{[ac].Y.E.V.D.[ClC[*:1]]}$$$$V2.0) |  |  | 
2 | inhibited | inhibited | inhibit | inhibited | inhibited | CC(=O)N[C@H](C(=O)N[C@@H](C)C(=O)N[C@@H](CC(=O)O)C(=O)CF)C(C)C [Ac-VAD-FMK] (HELM PEPTIDE1{[ac].V.A.D.[FC[*:1]]}$$$$V2.0) |  |  | 
3 |  |  | potent inhibitor |  |  | [Zn+2] [Zn^+2] | inhibit apoptosis |  | 
4 | inhibited | inhibited | inhibit | inhibited | inhibited | COC(=O)CC(NC(=O)OC(C)(C)C)C(=O)CF [Boc D-FMK] |  |  | 

More lines, now with the values behind:

Row | Compound | inhibition of caspase-8 (Caspase-8) | inhibition of caspase-1 (Caspase-1) | inhibition of caspase-3 (caspase-3) | inhibition of caspase-6 (Caspase-6) | inhibition of caspase-9 (Caspase-9) | effect on apoptosis (apoptosis) | inhibition of metacaspase (Metacaspase [1]) | also measured
5 | O=C(O)CN(CCN(CC(=O)O)CC(=O)O)CCN(CC(=O)O)CC(=O)O [DTPA, diethylene triamine pentaacetic acid] |  |  |  |  |  | permits apoptosis to occur |  | 
6 | CC(=O)N[C@@H](CC(=O)O)C(=O)N[C@@H](CCC(=O)O)C(=O)N[C@H](C(=O)N[C@H](C=O)CC(=O)O)C(C)C [AcDEVD-CHO] |  |  |  |  |  |  | inhibited | inhibition of caspase-3 (caspase-3; Chlorella saccharophila): inhibit
7 | COC(=O)CC[C@H](NC(=O)[C@H](CC(=O)OC)NC(=O)OCc1ccccc1)C(=O)N[C@H](C(=O)N[C@@H](CC(=O)OC)C(=O)CF)C(C)C [Z-DEVD-FMK] |  |  |  |  |  |  | inhibited | inhibition of metacaspase (metacaspase [2]): inhibits
8 | c1ccc(CN(CCN(Cc2ccccn2)Cc2ccccn2)Cc2ccccn2)nc1 [TPEN, N,N,N′,N′-tetrakis(2-pyridylmethyl)ethylenediamine] |  |  |  |  |  | permits apoptosis to occur |  | 
9 | COC(=O)C[C@H](NC(=O)[C@H](C)NC(=O)[C@@H](NC(=O)OCc1ccccc1)C(C)C)C(=O)CF [zVAD-fmk] (Cbz-Val-Ala-Asp(OMe)-CH2F) |  |  |  |  |  |  | inhibited | 
